In patent US20100331310A1, “BICYCLOAMINE DERIVATIVES” (priority 2008, published 2010):
Counter-ions that a name gives are not always drawn.

These compounds were tested against T1, human Nav1.8 (Homo sapiens, UniProt Q9Y5Y9) (assay: Membrane potential increase-inhibitory action on TTX-resistant Na channels in cells expressing human Nav1.8 gene (deltamethrin stimulation)). Conditions: not given.
T1 construct: expressed in transfected cells
T1 sequence (Q9Y5Y9 whole entry): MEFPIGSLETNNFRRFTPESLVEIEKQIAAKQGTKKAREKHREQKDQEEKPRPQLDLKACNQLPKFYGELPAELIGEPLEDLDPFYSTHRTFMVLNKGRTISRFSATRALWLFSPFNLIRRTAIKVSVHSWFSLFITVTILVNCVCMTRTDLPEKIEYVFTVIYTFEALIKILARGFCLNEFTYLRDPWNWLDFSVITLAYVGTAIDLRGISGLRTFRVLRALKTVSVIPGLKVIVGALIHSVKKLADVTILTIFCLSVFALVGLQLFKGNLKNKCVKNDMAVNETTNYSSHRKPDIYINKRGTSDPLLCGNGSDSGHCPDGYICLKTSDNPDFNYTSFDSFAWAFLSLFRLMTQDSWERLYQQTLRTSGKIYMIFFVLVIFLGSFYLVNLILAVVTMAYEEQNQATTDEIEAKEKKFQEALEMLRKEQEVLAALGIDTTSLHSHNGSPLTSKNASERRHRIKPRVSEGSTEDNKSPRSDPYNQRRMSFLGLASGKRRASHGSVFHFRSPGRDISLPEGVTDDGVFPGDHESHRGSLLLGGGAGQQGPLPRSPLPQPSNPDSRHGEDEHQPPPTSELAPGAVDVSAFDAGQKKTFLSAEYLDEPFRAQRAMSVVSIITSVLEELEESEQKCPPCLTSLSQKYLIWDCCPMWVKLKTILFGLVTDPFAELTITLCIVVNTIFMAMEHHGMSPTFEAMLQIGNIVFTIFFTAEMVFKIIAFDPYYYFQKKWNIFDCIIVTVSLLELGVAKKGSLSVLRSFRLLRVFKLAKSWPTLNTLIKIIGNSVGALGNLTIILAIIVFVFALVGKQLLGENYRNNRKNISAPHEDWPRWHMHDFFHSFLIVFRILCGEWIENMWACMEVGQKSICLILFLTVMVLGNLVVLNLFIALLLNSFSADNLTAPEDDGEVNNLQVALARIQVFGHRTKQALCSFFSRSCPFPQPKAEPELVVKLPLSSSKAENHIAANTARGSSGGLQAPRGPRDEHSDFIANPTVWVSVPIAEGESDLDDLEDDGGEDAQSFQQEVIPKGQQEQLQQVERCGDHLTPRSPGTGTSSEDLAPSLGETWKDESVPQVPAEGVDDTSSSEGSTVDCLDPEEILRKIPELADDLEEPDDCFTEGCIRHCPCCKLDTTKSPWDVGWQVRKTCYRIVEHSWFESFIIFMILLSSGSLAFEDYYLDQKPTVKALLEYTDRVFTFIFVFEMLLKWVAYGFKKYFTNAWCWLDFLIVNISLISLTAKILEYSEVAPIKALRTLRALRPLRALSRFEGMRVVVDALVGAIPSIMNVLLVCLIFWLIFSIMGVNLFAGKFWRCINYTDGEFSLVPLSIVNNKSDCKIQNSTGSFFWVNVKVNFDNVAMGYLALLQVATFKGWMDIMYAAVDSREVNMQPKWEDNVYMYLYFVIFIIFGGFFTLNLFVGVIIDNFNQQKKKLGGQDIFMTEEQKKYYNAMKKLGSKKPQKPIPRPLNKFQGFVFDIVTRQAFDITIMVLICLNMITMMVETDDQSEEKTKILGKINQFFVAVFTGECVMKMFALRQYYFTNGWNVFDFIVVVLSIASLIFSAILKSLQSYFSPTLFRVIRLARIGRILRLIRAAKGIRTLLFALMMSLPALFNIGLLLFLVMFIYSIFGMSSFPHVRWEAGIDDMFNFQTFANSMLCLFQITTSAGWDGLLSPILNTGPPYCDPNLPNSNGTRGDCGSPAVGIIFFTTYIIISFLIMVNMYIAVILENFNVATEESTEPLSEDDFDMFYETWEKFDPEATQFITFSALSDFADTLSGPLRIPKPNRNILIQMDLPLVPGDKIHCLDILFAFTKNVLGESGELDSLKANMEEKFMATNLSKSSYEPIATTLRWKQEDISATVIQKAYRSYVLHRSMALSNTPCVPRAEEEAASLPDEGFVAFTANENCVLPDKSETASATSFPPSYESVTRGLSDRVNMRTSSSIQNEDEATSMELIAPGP
Assay type: cell-based
Procedure: A cell line expressing human Nav1.8 gene was used to evaluate the pharmacological effects of compounds of the invention.
1. A membrane potential-sensitive dye containing TTX (final concentration: 0.25 μM) was added to cells expressing human Nav1.8, prior to incubation at 37° C. for 30-60 minutes. 2. The test compound was added to the cells, and the mixture was stationed for 15-30 minutes at room temperature while shielded from light. 3. Deltamethrin (final concentration: 50 μM), a Nav1.8 channel stimulant, was added, and the change in fluorescence intensity due to increased membrane potential was measured.
The Nav1.8 channel inhibition of the test compound was determined by the following equation.
With CCc1ccccc1COC1CC2CCC(C1)N2C[C@H](O)Cn1nc(C)n(CC)c1=O (stereo partly drawn) [Example 31, (Endo)-4-ethyl-2-{(S)-3-[3-(2-ethylbenzyloxy)-8-azabicyclo[3.2.1]oct-8-yl]-2-hydroxypropyl}-5-methyl-2,4-dihydro[1,2,4]triazol-3-one] the IC50 was 1 µM. With Cc1nn(C[C@H](O)CN2[C@@H]3CC[C@H]2C[C@@H](OCc2ccc(F)cc2)C3)c(=O)n1-c1cnn(C)c1 [Example 34, (Endo)-2-{(R)-3-[3-(4-fluorobenzyloxy)-8-azabicyclo[3.2.1]oct-8-yl]-2-hydroxypropyl}-5-methyl-4-(1-methyl-1H-pyrazol-4-yl)-2,4-dihydro[1,2,4]triazol-3-one] the IC50 was 16 µM. With Cc1c(C)n(C)c(=O)n(CCCN2[C@@H]3CC[C@H]2C[C@@H](OCc2ccccc2F)C3)c1=O [Example 189, (Endo)-3-{3-[3-(2-fluorobenzyloxy)-8-azabicyclo[3.2.1]oct-8-yl]propyl}-1,5,6-trimethyl-1H-pyrimidine-2,4-dione oxalate] the IC50 was 3.8 µM. Work on Cc1nn2c(=O)n(C[C@H](F)CN3[C@@H]4CC[C@H]3C[C@@H](OCc3ccc(F)c(F)c3)C4)c(=O)nc2n1C [Example 102, (Endo)-6-{(R)-3-[3-(3,4-di-fluorobenzyloxy)-8-azabicyclo[3.2.1]oct-8-yl]-2-fluoropropyl}-2,3-dimethyl-3H-[1,2,4]triazole[1,5-a][1,3,5]triazine-5,7-dione] yielded an IC50 of 2.8 µM. CCn1cnn(C[C@@H](O)CN2[C@@H]3CC[C@H]2C[C@@H](OCc2c(C)cccc2F)C3)c1=O [Example 35, (Endo)-4-ethyl-2-{(S)-3-[3-(2-fluoro-6-methylbenzyloxy)-8-azabicyclo[3.2.1]oct-8-yl]-2-hydroxypropyl}-2,4-dihydro[1,2,4]triazol-3-one] was tested, and the IC50 was 14 µM. Cn1c(-c2ccccc2)nn(CCCN2[C@@H]3CC[C@H]2C[C@@H](OCc2ccccc2F)C3)c1=O [Example 57, (Endo)-2-{3-[3-(2-fluorobenzyloxy)-8-azabicyclo[3.2.1]oct-8-yl]propyl}-4-methyl-5-phenyl-2,4-dihydro[1,2,4]triazol-3-one oxalate] gave an IC50 of 0.08 µM. Cc1cccc(COC2CC3CCC(C2)N3CC(F)Cn2c(=O)nc(C)n(C)c2=O)c1 (stereo not drawn) [Example 21, (Endo)-3-{2-fluoro-3-[3-(3-methylbenzyloxy)-8-azabicyclo[3.2.1]oct-8-yl]-propyl}-1,6-dimethyl-1H-[1,3,5]triazine-2,4-dione oxalate] gave an IC50 of 4 µM. Cc1nc2c(c(=O)n1CCN1[C@@H]3CC[C@H]1C[C@@H](OCc1ccccc1F)C3)CCCC2 [Example 180, (Endo)-3-{2-[3-(2-fluorobenzyloxy)-8-azabicyclo[3.2.1]oct-8-yl]ethyl}-2-methyl-5,6,7,8-tetrahydro-3H-quinazolin-4-one oxalate] showed an IC50 of 4.8 µM. O=C(CN1[C@@H]2CC[C@H]1C[C@@H](OCc1ccccc1F)C2)Cn1nc2ccccn2c1=O [Example 158, (Endo)-2-{3-[3-(2-fluorobenzyloxy)-8-azabicyclo[3.2.1]oct-8-yl]-2-oxopropyl}-2H-[1,2,4]triazolo[4,3-a]pyridin-3-one] showed an IC50 of 0.93 µM. With Cn1c(=O)c2c(ncn2CCCN2[C@@H]3CC[C@H]2C[C@@H](OCc2ccccc2F)C3)n(C)c1=O [Example 182, (Endo)-7-{3-[3-(2-fluorobenzyloxy)-8-azabicyclo[3.2.1]oct-8-yl]propyl}-1,3-dimethyl-3,7-dihydro-purine-2,6-dione] the IC50 was 6.7 µM. Cc1nc(=O)n(C[C@@H](F)CN2[C@@H]3CC[C@H]2C[C@@H](OCc2cccc(F)c2)C3)c(=O)n1C [Example 13, (Endo)-3-{(S)-2-fluoro-3-[3-(3-fluorobenzyloxy)-8-azabicyclo[3.2.1]oct-8-yl]propyl}-1,6-dimethyl-1H-[1,3,5]triazine-2,4-dione oxalate] showed an IC50 of 10 µM. For Cc1nn(C[C@H](F)CN2[C@@H]3CC[C@H]2C[C@@H](OCc2cccc(F)c2)C3)c(=O)n1-c1ccn(C)n1 [Example 23, (Endo)-2-{(R)-2-fluoro-3-[3-(3-fluorobenzyloxy)-8-azabicyclo[3.2.1]oct-8-yl]propyl}-5-methyl-4-(1-methyl-1H-pyrazol-3-yl)-2,4-dihydro[1,2,4]triazol-3-one oxalate], the IC50 was 5.3 µM. In the case of Cc1nn2c(=O)n(C[C@H](F)CN3[C@@H]4CC[C@H]3C[C@@H](OCc3cccc(F)c3)C4)c(=O)nc2n1C [Example 101, (Endo)-6-{(R)-2-fluoro-3-[3-(3-fluorobenzyloxy)-8-azabicyclo[3.2.1]oct-8-yl]propyl}-2,3-dimethyl-3H-[1,2,4]triazole[1,5-a][1,3,5]triazine-5,7-dione], the IC50 is reported as 2.7 µM. Work on Cn1c(-c2cocn2)nn(CC(O)CN2[C@@H]3CC[C@H]2C[C@@H](OCc2ccccc2CF)C3)c1=O (stereo partly drawn) [Example 55, (Endo)-2-{3-[3-(2-fluoromethylbenzyloxy)-8-azabicyclo[3.2.1]oct-8-yl]-2-hydroxy-propyl}-4-methyl-5-oxazol-4-yl-2,4-dihydro[1,2,4]triazol-3-one] yielded an IC50 of 12 µM. Compound O=c1n(CC(O)CN2[C@@H]3CC[C@H]2C[C@@H](OCc2ccccc2F)C3)nnn1-c1ccccc1 (stereo partly drawn) [Example 190, (Endo)-1-{3-[3-(2-fluorobenzyloxy)-8-azabicyclo[3.2.1]oct-8-yl]-2-hydroxypropyl}-4-phenyl-1,4-dihydro-tetrazol-5-one] has an IC50 of 0.03 µM. Cc1nn(CC(O)CN2[C@@H]3CC[C@H]2C[C@@H](OCc2ccccc2F)C3)c(=O)n1-c1nccs1 (stereo partly drawn) [Example 48, (Endo)-2-{3-[3-(2-fluorobenzyloxy)-8-azabicyclo[3.2.1]oct-8-yl]-2-hydroxypropyl}-5-methyl-4-thiazol-2-yl-2,4-dihydro[1,2,4]triazol-3-one oxalate] was tested, and the IC50 was 0.2 µM. Cc1nn(C[C@@H](F)CN2[C@@H]3CC[C@H]2C[C@@H](OCc2ccc(F)cc2)C3)c(=O)n1-c1ccn(C)n1 [Example 24, (Endo)-2-{(S)-2-fluoro-3-[3-(4-fluorobenzyloxy)-8-azabicyclo[3.2.1]oct-8-yl]propyl}-5-methyl-4-(1-methyl-1H-pyrazol-3-yl)-2,4-dihydro[1,2,4]triazol-3-one oxalate] was tested, and the IC50 was 3.7 µM. CCn1c(C)nc(=O)n(CCCN2[C@@H]3CC[C@H]2C[C@@H](OCc2c(F)cccc2-c2ccccc2)C3)c1=O [Example 91, (Endo)-1-ethyl-3-{3-[3-(3-fluorobiphenyl-2-ylmethoxy)-8-azabicyclo[3.2.1]oct-8-yl]propyl}-6-methyl-1H-[1,3,5]triazine-2,4-dione oxalate] showed an IC50 of 0.17 µM. With O=c1n(CC[C@H](O)CN2[C@@H]3CC[C@H]2C[C@@H](OCc2ccccc2F)C3)nc2ccccn12 [Example 155, (Endo)-2-{(S)-4-[3-(2-fluorobenzyloxy)-8-azabicyclo[3.2.1]oct-8-yl]-3-hydroxybutyl}-2H-[1,2,4]triazolo[4,3-a]pyridin-3-one] the IC50 was 1.3 µM. Cc1ccccc1OC[C@@H]1C[C@H]2CC[C@@H](C1)N2CCCCn1nc2ccccn2c1=O [Example 153, (Exo)-2-{4-[3-(2-methylphenoxymethyl)-8-azabicyclo[3.2.1]oct-8-yl]butyl}-2H-[1,2,4]triazolo[4,3-a]pyridin-3-one oxalate] gave an IC50 of 3.7 µM. Cc1nn(C[C@H](F)CN2C3CCC2CC(OCc2cccs2)C3)c(=O)n1C (stereo partly drawn) [Example 7, (Endo)-2-{(R)-2-fluoro-3-[3-(thiophen-2-ylmethoxy)-8-azabicyclo[3.2.1]oct-8-yl]propyl}-4,5-dimethyl-2,4-dihydro[1,2,4]triazol-3-one] was tested, and the IC50 was 4.3 µM. With CCn1c(CCCN2[C@@H]3CC[C@H]2C[C@@H](OCc2ccccc2F)C3)nn(C)c1=O [Example 169, (Endo)-4-ethyl-5-{3-[3-(2-fluorobenzyloxy)-8-azabicyclo[3.2.1]oct-8-yl]propyl}-2-methyl-2,4-dihydro[1,2,4]triazol-3-one] the IC50 was 12 µM. Work on Cc1cccc(F)c1CO[C@H]1C[C@H]2CC[C@@H](C1)N2CCCn1c(=O)nc2n(c1=O)CCCCC2 [Example 136, (Endo)-3-{3-[3-(2-fluoro-6-methylbenzyloxy)-8-azabicyclo[3.2.1]oct-8-yl]propyl}-7,8,9,10-tetrahydro-6H-[1,3,5]triazino[1,2-a]azepine-2,4-dione oxalate] yielded an IC50 of 4.9 µM. With Cc1nc(=O)n(C[C@H](F)CN2[C@@H]3CC[C@H]2C[C@@H](OCc2cccc(F)c2)C3)c(=O)n1C [Example 15, (Endo)-3-{(R)-2-fluoro-3-[3-(3-fluorobenzyloxy)-8-azabicyclo[3.2.1]oct-8-yl]propyl}-1,6-dimethyl-1H-[1,3,5]triazine-2,4-dione oxalate] the IC50 was 2.4 µM. O=c1nc2n(c(=O)n1C[C@H](F)CN1[C@@H]3CC[C@H]1C[C@@H](OCc1ccc(F)cc1)C3)CCC2 [Example 128, (Endo)-3-{(R)-2-fluoro-3-[3-(4-fluorobenzyloxy)-8-azabicyclo[3.2.1]oct-8-yl]propyl}-7,8-dihydro-6H-pyrrolo[1,2-a][1,3,5]triazine-2,4-dione oxalate] gave an IC50 of 3.7 µM.

Same assay, conditions: 30 μM; reference for complete inhibition in the equation
In the case of CNCCCN1c2ccccc2CCc2ccccc21 [desipramine, reference compound], the Nav1.8 channel inhibition is reported as “completely inhibits”.
